Reference: patent US20250101487A1, “SELF-DILUTING MICROFLUIDIC DEVICE FOR RAPID ANTIMICROBIAL SUSCEPTIBILITY TESTS” (The University of Hong Kong, priority 2023, published 2025)
In brackets after ≈: the same amount, converted by molar mass. Read-outs that look alike come from different tables or passages of the source.

Assays:
K. pneumoniae [1] = assay: SDFAST antimicrobial susceptibility test (WST-8 colorimetric); type: cell-based; conditions: Klebsiella pneumoniae, WST-8, 37° C., 6 hours
Method: (§1) SDFAST (Self Dilution for Faster Antimicrobial Susceptibility Testing) involved a relatively simple mechanism with three phases: loading, droplet formation, and mixing (FIG. 3A). In the loading phase, a bacteria sample with a colorimetric indicator (CCK-8, cell counting kit-8) was injected into the constant-volume channels, while the antibiotic solution is injected into the varied-volume channels. In the droplet formation phase, the upper chip was slipped, forming droplets. In the mixing phase, the bacteria sample was mixed with the antibiotic solution. […] The well before the abrupt color change represented the minimum inhibitory concentration (MIC) of the bacteria with the antibiotic.
(§2) The solutions were injected using a micropipette with 0.1-20 μL tips. For lines with constant volume, 20 μL solution was required to fill up one entire line, while for lines with varied volumes, 10 μL solution was required. The excess solution was expelled from the hole adjacent to the end side of each line and could be wiped with KimWipes. After filling the wells, the chips were slid so that the lower line aligned and overlapped with the upper line, allowing the solutions to mix. Subsequently, the chips were placed inside a Petri dish containing FC-40, and the dish was sealed with parafilm. The dish was then incubated at 37° C. for 6 hours before color analysis using ImageJ.
The bacteria were cultured on an agar plate and incubated in Mueller-Hinton Broth (MHB, Sigma-Aldrich) at 37° C. overnight. The culture solution was then diluted 1000 times with MHB and mixed with 5% WST-8 indicator (Beyotime). […]
(§3) In the present invention, the SDFAST was operated with the water-soluble tetrazolium salt-8 (WST-8) assay, in which four prevalent bacteria, Acinetobacter baumannii (A. baumannii), Escherichia coli (E. coli), Klebsiella pneumoniae (K. pneumoniae) and clinical samples containing Staphylococcus species were tested under various antibiotics. […] After the identification, the MIC value was calculated based on dilution rates.

A. baumannii [2] = assay: as above; type: cell-based; conditions: Acinetobacter baumannii, WST-8, 37° C., 6 hours
Method: as §1, §2
(§4) The bacteria were cultured on an agar plate and incubated in Mueller-Hinton Broth (MHB, Sigma-Aldrich) at 37° C. overnight. The culture solution was then diluted 1000 times with MHB and mixed with 5% WST-8 indicator (Beyotime). The antibiotic solutions were prepared by dissolving the desired amount of antibiotics (solid or liquid) into DI water, and the solutions were diluted by DI water according to the desired concentrations to be tested.
as §3, with “The colourless or very pale yellow well before” for “After”, “abrupt change in each line represented” for “identification,”, “corresponding MIC, which could be easily identified by the naked eyes.” for “MIC value was calculated based on dilution rates.”

E. coli [3] = assay: as above; type: cell-based; conditions: Escherichia coli, WST-8, 37° C., 6 hours
Method: as §1, §2, §4
as §3, with “The colourless or very pale yellow well before” for “After”, “abrupt change in each line represented” for “identification,”, “corresponding MIC, which could be easily identified by the naked eyes.” for “MIC value was calculated based on dilution rates.”

K. pneumoniae [4] = assay: Broth microdilution; type: cell-based; conditions: Klebsiella pneumoniae
Method: (§5) Currently, AST is mostly commonly conducted by the broth microdilution method^3,4, in which the antibiotic solution of the desired concentration is prepared, injected into a microwell, and diluted serially from well to well. Afterward, an equal volume of bacteria solution is introduced to every microwell with antibiotics of varied concentrations, and the well-plate is incubated overnight. In the end, MIC is determined by observing and analyzing the turbidity of each well, and the well with the lowest concentration of antibiotic showing no turbidity represents the MIC^5. […] Another common yet less complex method is disc diffusion^7. In this technique, bacteria are initially cultured on Mueller-Hinton agar. Subsequently, antimicrobial discs are positioned on the agar plate, and the plate is left to incubate overnight. The diameters of inhibition zones, the regions where bacteria are being killed, are then measured, and these values are compared to reference standards to ascertain susceptibility. This method is used for qualitative determination of bacterial susceptibility, in which the bacteria are determined to be “resistant”, “intermediate,” or “susceptible” from the results. Despite its widespread use, this method has several drawbacks. […] Additionally, it is time-consuming, requiring 16 to 24 hours to produce results, and must be conducted in a laboratory^8,9. Consequently, an alternative approach that is portable, user-friendly, and time-efficient needs to be developed for rapid MIC determination.

A. baumannii [5] = assay: Broth microdilution; type: cell-based; conditions: Acinetobacter baumannii
Method: as §5

E. coli [6] = assay: Broth microdilution; type: cell-based; conditions: Escherichia coli
Method: as §5

S. caprae [7] = assay: SDFAST antimicrobial susceptibility test (WST-8), clinical Staphylococcus strains; type: cell-based
Method: as §1, §2
(§6) They were obtained from the Department of Microbiology, Queen Mary Hospital, Hong Kong (Patient samples). Vancomycin hydrochloride solution (100 mg/mL in DMSO, Sigma-Aldrich) was diluted with DI water to desired concentrations for each strain. The results were compared to those obtained by E-test from the Department of Microbiology.

S. haemolyticus [8] = assay: as above; type: cell-based; conditions: S. haemolyticus 901622-2
Method: as §1, §2, §6

S. capitis [9] = assay: as above; type: cell-based
Method: as §1, §2, §6

S. aureus [10] = assay: as above; type: cell-based
Method: as §1, §2, §6

S. caprae [11] = conditions: cited from earlier work
S. capitis [12] = conditions: cited from earlier work
S. haemolyticus [13] = conditions: S. haemolyticus 901622-2; cited from earlier work
S. aureus [14] = conditions: cited from earlier work

In the case of `O=C(O)c1cn(C2CC2)c2cc(N3CCNCC3)c(F)cc2c1=O` [CIP, Ciprofloxacin], the MIC (K. pneumoniae [1]) is reported as 6.25 µg/mL (≈ 18.9 µM).
Compound `CC(C)(O/N=C(\C(=O)N[C@@H]1C(=O)N2C(C(=O)[O-])=C(C[n+]3ccccc3)CS[C@H]12)c1csc(N)n1)C(=O)O` [CTZ, Ceftazidime] has an MIC (A. baumannii [2]) of 62.5 µg/mL (≈ 114 µM), an MIC (E. coli [3]) of 62.5 µg/mL (≈ 114 µM) and an MIC (K. pneumoniae [1]) of 62.5 µg/mL (≈ 114 µM). For the same compound, the MIC (K. pneumoniae [4]) was 125 µg/mL (≈ 229 µM), the MIC (A. baumannii [5]) was 62.5 to 125 µg/mL (≈ 114 to 229 µM) and the MIC (E. coli [6]) was 62.5 µg/mL (≈ 114 µM).
For `C[C@H]1COc2c(N3CCN(C)CC3)c(F)cc3c(=O)c(C(=O)O)cn1c23` [LEV, Levofloxacin], the MIC (A. baumannii [2]) was 100 µg/mL (≈ 277 µM), the MIC (E. coli [3]) was 12.5 µg/mL (≈ 34.6 µM) and the MIC (K. pneumoniae [1]) was 50 µg/mL (≈ 138 µM). For the same compound, the MIC (K. pneumoniae [4]) was 50 µg/mL (≈ 138 µM), the MIC (A. baumannii [5]) was 100 µg/mL (≈ 277 µM) and the MIC (E. coli [6]) was 12.5 µg/mL (≈ 34.6 µM).
With `CN[C@H](CC(C)C)C(=O)N[C@H]1C(=O)N[C@@H](CC(N)=O)C(=O)N[C@H]2C(=O)N[C@H]3C(=O)N[C@H](C(=O)N[C@H](C(=O)O)c4cc(O)cc(O)c4-c4cc3ccc4O)[C@H](O)c3ccc(c(Cl)c3)Oc3cc2cc(c3O[C@@H]2O[C@H](CO)[C@@H](O)[C@H](O)[C@H]2O[C@H]2C[C@](C)(N)[C@H](O)[C@H](C)O2)Oc2ccc(cc2Cl)[C@H]1O` [Vancomycin] the MIC (S. caprae [7]; S. caprae 901820-2) was 1.56 µg/mL (≈ 1.08 µM), the MIC (S. caprae [7]; S. caprae 902278-1) was 0.195 µg/mL (≈ 0.135 µM) and the MIC (S. caprae [7]; S. caprae 903211) was 0.5 µg/mL (≈ 0.345 µM). The MIC (S. caprae [7]; S. caprae 903522) was 1.11 µg/mL (≈ 0.766 µM), the MIC (S. haemolyticus [8]) was 1.56 µg/mL (≈ 1.08 µM) and the MIC (S. capitis [9]; S. capitis 901820-1) was 1 µg/mL (≈ 0.69 µM). It also gave an MIC (S. capitis [9]; S. capitis 902278-2) of 1 µg/mL (≈ 0.69 µM), an MIC (S. capitis [9]; S. capitis 902530-2) of 0.55 µg/mL (≈ 0.38 µM) and an MIC (S. aureus [10]; S. aureus 900967) of 1 µg/mL (≈ 0.69 µM). It also gave an MIC (S. aureus [10]; S. aureus 901089) of 1 µg/mL (≈ 0.69 µM), an MIC (S. aureus [10]; S. aureus 901763) of 0.5 µg/mL (≈ 0.345 µM) and an MIC (S. aureus [10]; S. aureus 902126) of 0.77 to 1.4 µg/mL (≈ 0.531 to 0.966 µM). The MIC (S. aureus [10]; S. aureus 902154) was 0.94 µg/mL (≈ 0.649 µM), the MIC (S. aureus [10]; S. aureus 902395) was 0.5 µg/mL (≈ 0.345 µM) and the MIC (S. aureus [10]; S. aureus 903245) was 1.4 µg/mL (≈ 0.966 µM). For the same compound, the MIC (S. aureus [10]; S. aureus 932674) was 0.77 to 1.4 µg/mL (≈ 0.531 to 0.966 µM), the “MIC, E-test (reference value)” value (S. caprae [11]; S. caprae 901820-2) was 1.5 µg/mL (≈ 1.04 µM) and the “MIC, E-test (reference value)” value (S. caprae [11]; S. caprae 902278-1) was 0.19 µg/mL (≈ 0.131 µM). The “MIC, E-test (reference value)” value (S. caprae [11]; S. caprae 903211) was 0.5 µg/mL (≈ 0.345 µM), the “MIC, E-test (reference value)” value (S. caprae [11]; S. caprae 903522) was 1 µg/mL (≈ 0.69 µM) and the “MIC, E-test (reference value)” value (S. capitis [12]; S. capitis 901820-1) was 1 µg/mL (≈ 0.69 µM). The “MIC, E-test (reference value)” value (S. capitis [12]; S. capitis 902278-2) was 1 µg/mL (≈ 0.69 µM), the “MIC, E-test (reference value)” value (S. capitis [12]; S. capitis 902530-2) was 0.5 µg/mL (≈ 0.345 µM) and the “MIC, E-test (reference value)” value (S. haemolyticus [13]) was 1.5 µg/mL (≈ 1.04 µM). The “MIC, E-test (reference value)” value (S. aureus [14]; S. aureus 900967) was 1 µg/mL (≈ 0.69 µM), the “MIC, E-test (reference value)” value (S. aureus [14]; S. aureus 901089) was 1 µg/mL (≈ 0.69 µM) and the “MIC, E-test (reference value)” value (S. aureus [14]; S. aureus 901763) was 0.5 µg/mL (≈ 0.345 µM). For the same compound, the “MIC, E-test (reference value)” value (S. aureus [14]; S. aureus 902126) was 0.75 µg/mL (≈ 0.518 µM), the “MIC, E-test (reference value)” value (S. aureus [14]; S. aureus 902154) was 0.5 µg/mL (≈ 0.345 µM) and the “MIC, E-test (reference value)” value (S. aureus [14]; S. aureus 902395) was 0.5 µg/mL (≈ 0.345 µM). For the same compound, the “MIC, E-test (reference value)” value (S. aureus [14]; S. aureus 903245) was 0.75 µg/mL (≈ 0.518 µM) and the “MIC, E-test (reference value)” value (S. aureus [14]; S. aureus 932674) was 0.75 µg/mL (≈ 0.518 µM).
